One assay is filed under the species Homo sapiens. Nature of the assay: Inhibition of CDK1/Cyclin A2 (unknown origin) at 100 nM.
Another assay concerns the target CDK9/cyclin T1 (Homo sapiens, UniProt P50750). Description: Inhibition of CDK9/Cyclin T1 (unknown origin) using PDKtide substrate incubated for 60 mins by ADP-Glo kinase assay. The class given is protein-complex assay. (In general: In ADP-Glo the light output rises with the ADP produced.)
The subject of a further assay is HT-29. Description: Growth inhibition of human HT-29 cells incubated for 48 hrs by CCK-8 assay. The class given is functional.
The target in assay [1] is Cyclin-dependent kinase 2/cyclin E1 (Homo sapiens) (UniProt P24864+P24941). Nature of the assay: Inhibition of CDK2/Cyclin E1 (unknown origin) at 100 nM. The class given is protein-complex assay.
The subject of the next assay is HCT-116. Description: Growth inhibition of human HCT-116 cells incubated for 48 hrs by CCK-8 assay. The class given is functional. A general note: Formazan colour is commonly taken as a measure of viable cells.
The target in assay [2] is CDK1/Cyclin E (Homo sapiens) (UniProt P06493+P24864). Description: Inhibition of CDK1/Cyclin E1 (unknown origin) at 100 nM. The assay is classed as protein-complex assay.
Assay [3] addresses CDK2/Cyclin A2 (Homo sapiens) (UniProt P24941+P20248). Description: Inhibition of CDK2/Cyclin A2 (unknown origin) at 100 nM. The assay is classed as protein-complex assay.

Active and inactive are the calls of the source. No cut-off for these calls is given here.

Sequence of CDK9/cyclin T1 (O60563 whole entry): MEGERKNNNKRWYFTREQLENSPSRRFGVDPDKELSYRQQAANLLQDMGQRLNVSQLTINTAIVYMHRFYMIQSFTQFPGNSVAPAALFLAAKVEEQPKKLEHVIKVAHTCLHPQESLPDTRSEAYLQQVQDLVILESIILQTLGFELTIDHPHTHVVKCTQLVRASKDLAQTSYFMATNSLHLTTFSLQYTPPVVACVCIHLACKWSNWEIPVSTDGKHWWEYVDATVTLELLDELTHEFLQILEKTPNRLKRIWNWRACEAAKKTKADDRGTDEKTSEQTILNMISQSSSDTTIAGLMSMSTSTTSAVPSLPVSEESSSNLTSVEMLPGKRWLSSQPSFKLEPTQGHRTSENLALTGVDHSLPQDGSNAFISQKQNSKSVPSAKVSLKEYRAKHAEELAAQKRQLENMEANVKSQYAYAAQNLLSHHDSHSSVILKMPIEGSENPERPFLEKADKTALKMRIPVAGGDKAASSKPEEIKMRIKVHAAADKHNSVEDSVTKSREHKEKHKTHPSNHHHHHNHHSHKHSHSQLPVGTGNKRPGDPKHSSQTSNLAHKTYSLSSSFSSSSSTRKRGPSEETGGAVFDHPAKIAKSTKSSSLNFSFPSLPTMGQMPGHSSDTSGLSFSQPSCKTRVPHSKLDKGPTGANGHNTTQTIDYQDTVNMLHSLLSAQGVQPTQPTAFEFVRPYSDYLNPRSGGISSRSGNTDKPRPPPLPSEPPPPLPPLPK
Sequence of CDK9/cyclin T1 (P50750 whole entry): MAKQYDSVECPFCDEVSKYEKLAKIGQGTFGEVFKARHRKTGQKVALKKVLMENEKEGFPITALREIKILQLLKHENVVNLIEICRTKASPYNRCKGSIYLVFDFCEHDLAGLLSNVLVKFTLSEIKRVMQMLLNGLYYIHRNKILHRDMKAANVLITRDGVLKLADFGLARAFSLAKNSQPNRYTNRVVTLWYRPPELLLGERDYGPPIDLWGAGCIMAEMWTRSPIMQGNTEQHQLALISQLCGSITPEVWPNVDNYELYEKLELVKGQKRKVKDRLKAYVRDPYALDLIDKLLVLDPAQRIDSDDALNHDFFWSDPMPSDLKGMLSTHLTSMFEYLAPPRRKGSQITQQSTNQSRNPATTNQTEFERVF
Sequence of CDK1/Cyclin E (Homo sapiens) (P06493 whole entry, looked up): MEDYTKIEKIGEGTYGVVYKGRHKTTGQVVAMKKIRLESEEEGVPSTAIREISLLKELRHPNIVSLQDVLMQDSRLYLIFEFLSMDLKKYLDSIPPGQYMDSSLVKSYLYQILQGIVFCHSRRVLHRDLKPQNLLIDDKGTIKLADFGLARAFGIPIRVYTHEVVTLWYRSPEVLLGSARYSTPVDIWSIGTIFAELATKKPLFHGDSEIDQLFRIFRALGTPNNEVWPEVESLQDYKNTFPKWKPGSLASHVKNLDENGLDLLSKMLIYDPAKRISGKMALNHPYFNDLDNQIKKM
Sequence of CDK1/Cyclin E (Homo sapiens) (P24864 whole entry, looked up): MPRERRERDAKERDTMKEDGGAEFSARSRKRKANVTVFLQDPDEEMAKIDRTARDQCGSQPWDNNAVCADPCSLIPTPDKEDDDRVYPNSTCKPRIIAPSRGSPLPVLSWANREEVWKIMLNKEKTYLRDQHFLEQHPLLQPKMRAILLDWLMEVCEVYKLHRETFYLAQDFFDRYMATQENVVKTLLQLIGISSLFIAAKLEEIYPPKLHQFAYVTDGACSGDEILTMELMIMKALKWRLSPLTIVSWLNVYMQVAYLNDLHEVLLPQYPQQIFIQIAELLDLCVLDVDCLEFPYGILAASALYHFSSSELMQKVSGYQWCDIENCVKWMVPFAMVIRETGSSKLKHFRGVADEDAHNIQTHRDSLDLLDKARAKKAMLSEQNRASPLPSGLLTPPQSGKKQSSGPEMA

Regarding `CCN1CCN(C(=O)c2ccc(Nc3cc(-c4ccc5nnn(C(C)C)c5c4)ccn3)nc2)CC1`, the inhibition result (in the assay listed under Homo sapiens; in assay [1]; in assay [2]; in assay [3]) was “Active” each time. In addition, the IC50 against CDK9/cyclin T1 was determined as 0.0038 µM. In addition, the GI50 in the assay with HT-29 stood at 0.05 µM; with HCT-116, 0.06 µM.

As a reminder, the IC50 is the concentration that gives 50% inhibition. Low values mean greater potency in that assay, high ones weaker potency in that assay. The term GI50 denotes the concentration giving 50% growth inhibition. Low readings indicate more potent growth inhibition, high ones less potent growth inhibition.

The values are drawn from ChEMBL document CHEMBL5518230, “Identification of a Novel Selective CDK9 Inhibitor for the Treatment of CRC: Design, Synthesis, and Biological Activity Evaluation” (J Med Chem, 2024).
